In assay [1] the test system is MCF-7 cells. The assay can be described thus: MTS in vitro cytotoxicity / cell viability assay on MCF-7 breast cancer cells. The class given is cell-based. Conditions: for IC50: Homo sapiens; for inhibition of MCF7 cells at low concentration / proliferative activity of cancer cells at low concentration: concentrations of less than or equal to 10 μM. As for the experimental part: Compound A was compared with genistein to test the cell viability of MCF-7 cells. […] The cell viability was tested using the MTS in vitro cytotoxicity assay. This is considered the most convenient assay because of its ease of use, accuracy and rapid indication of toxicity (Malich G et al., Toxicology 124(3): 179-92 (1997).

Assay [2] deals with MDA-MB-468 (estrogen negative) cancer cells. Kind of assay: Inhibition of MDA-MB-468 (estrogen negative) breast cancer cells. Format: cell-based. The conditions noted are these: for IC50, MDA-MB-468 cells / IC50: day 6; for IC50: Homo sapiens, MDA-MB-468, 144 h.
Another assay has as its system PC3 cells. The assay can be described thus: IC50 against PC3 cells. Format: cell-based. Conditions: Homo sapiens, PC-3.
For a further assay, the system named is LNCap cells. The assay can be described thus: IC50 against LNCap cells. Format: cell-based. The conditions noted are these: Homo sapiens.
The test system of assay [3] is MCF-7 cells. The conditions noted are these: cited from earlier work; for effect on growth of MCF-7 cells at low concentration: at <10 μM.
[4] abbreviates: day 6 of incubation, Examples 10 and 11.
[5] abbreviates: MCF7, Example 8 table, read-out: IC50 against MCF-7 cells.
Where [6] appears, read: MCF7, Example 9, incubation time not given, read-out: IC50, inhibitory effect on MCF7 cells (no significant effect).
[7] abbreviates: MCF7, 24 h, 1 day of incubation, Example 8, read-out: IC50, cell viability of MCF-7 cells.
[8] abbreviates: MCF7, 48 h, 2 days of incubation, Example 8, read-out: IC50, cell viability of MCF-7 cells.
Where [9] appears, read: MCF7, 72 h, 3 days of incubation, Example 8, read-out: IC50, cell viability of MCF-7 cells.
Setting [10] is: MCF7, 144 h, day 6 of incubation, Examples 10 and 11, read-out: IC50, MCF-7 estrogen positive breast cancer cells.
Where [11] appears, read: MCF7, 8 hours incubation, Example 9, read-out: IC50, MCF7 cells.

≈ marks a conversion by molar mass, not a printed value. Where two headings read alike, the source gives them in different places.

As for `CC(C(=O)c1c(O)cc(O)cc1O)c1ccc(O)cc1` (centres unmarked) [6-hydroxy-O-Dma], in the assay with MCF-7 cells [1] (setting [4]), the “IC50, MCF-7 estrogen positive breast cancer cells” value is 33 µg/mL (≈ 120 µM). Also, in assay [2], the “IC50, MDA-MB-468 cells” value is 43 µg/mL (≈ 157 µM).

In the case of `CC(C(=O)c1ccc(O)cc1O)c1ccc(O)cc1` (centres unmarked) [O-Dma, O-desmethylangolensin], the “IC50, MCF-7 estrogen positive breast cancer cells” value with MCF-7 cells [1] (setting [4]) was determined as 38 µg/mL (≈ 147 µM). In addition, the “IC50, MDA-MB-468 cells” value in assay [2] came out at 20 µg/mL (≈ 77.4 µM).

Consider `C=C(C(=O)c1cc(O)c(O)cc1O)c1ccc(O)cc1` [(VIII), 1-(2,4,5-trihydroxyphenyl)-2-(4-hydroxyphenyl)-prop-2-cn-1-one], for which the IC50 with MCF-7 cells [1] (setting [5]) was below 8 µg/mL.

On to `CC(C(=O)c1ccc(O)cc1O)c1ccc(O)c(O)c1` (centres unmarked) [(V), 1-(2,4,dihydroxyphenyl)-2-(3,4-dihydroxyphenyl)-propan-1-one], for which, in the assay with MCF-7 cells [1] (setting [5]), the IC50 was 10 to 20 µg/mL (≈ 36.5 to 72.9 µM).

As for `C=C(C(=O)c1ccc(O)cc1O)c1ccc(O)c(O)c1` [(VI), 1-(2,4-di-hydroxyphenyl)-2-(3,4-dihydroxyphenyl)-prop-2-cn-1-one], the IC50 amounted to 3.2 µg/mL (≈ 11.8 µM) in the assay with MCF-7 cells [1] (setting [5]), 6.2 µg/mL (≈ 22.8 µM) with PC3 cells and 7 µg/mL (≈ 25.7 µM) in the assay with LNCap cells.

As to `O=c1c(-c2ccc(O)cc2)coc2cc(O)ccc12` [daidzein], the IC50 in the assay with MCF-7 cells [1] (setting [6]) was at least 36 µg/mL. Also, the “effect on growth of MCF-7 cells at low concentration” value (shortened to “effect on growth of MCF-7 cells”) in the assay on MCF-7 cells [3] is “can enhance the growth”.

Take `CC(C(=O)c1cc(O)c(O)cc1O)c1ccc(O)cc1` (centres unmarked) [Compound A, 1-(2,4,5-trihydroxyphenyl)-2-(4-hydroxyphenyl)-propan-1-one]: the “effect on growth of MCF-7 cells” value in the assay on MCF-7 cells [1] (2.5 micrograms/ml, within 8 hours of incubation and at days 1 and 2) is given as “inhibited the growth”. The IC50 in the assay with MCF-7 cells [1] (setting [7]) was 6 µg/mL (≈ 21.9 µM); with MCF-7 cells [1] (setting [8]), 6.5 µg/mL (≈ 23.7 µM); in the assay on MCF-7 cells [1] (setting [9]) it was 7 µg/mL (≈ 25.5 µM); with MCF-7 cells [1] (setting [10]), 2.1 µg/mL (≈ 7.66 µM); in the assay on MCF-7 cells [1] (setting [11]), 6 µg/mL (≈ 21.9 µM); with MCF-7 cells [1] (setting [5]), 6 to 10 µg/mL (≈ 21.9 to 36.5 µM). For the same compound, the IC50 was 4 to 7 µg/mL (≈ 14.6 to 25.5 µM) in the assay on MCF-7 cells [1] (MCF7, incubations at 24, 48, 72 and 144 hours, Example 9, read-out: IC50, MCF7 cells); 6.8 µg/mL (≈ 24.8 µM) in assay [2]. Also, the “inhibition of MCF7 breast cancer cells compared with genistein, daidzein, precursors and metabolites” value in the assay on MCF-7 cells [1] (concentrations of 15-40 μg/ml, Example 9) is reported as “significant inhibition”. In addition, the “inhibition of MCF7 cells at low concentration” value with MCF-7 cells [1] (Example 9) was “no significant inhibition”. In addition, the “proliferative activity of cancer cells at low concentration” value with MCF-7 cells [1] (MCF7, Example 9) is given as “no proliferative activity”. Besides, the “times more inhibitive than O-Dma and 6-hydroxy-O-Dma” value in assay [2] (MDA-MB-468, day 6) is given as 3-7 times.

In the case of `Oc1ccc([C@H]2COc3cc(O)ccc3C2)cc1` [equol], the IC50 in the assay with MCF-7 cells [1] (setting [6]) was at least 36 µg/mL. Besides, the “effect on growth of MCF-7 cells” value with MCF-7 cells [3] is recorded as “can enhance the growth”.

Consider `O=C1c2ccc(O)cc2OCC1c1ccc(O)c(O)c1` (centres unmarked) [(VII), 3′-hydroxy-dihydrodaidzen], for which the IC50 with MCF-7 cells [1] (setting [5]) is around 28 µg/mL (≈ 103 µM).

As for `O=c1c(-c2ccc(O)cc2)coc2cc(O)c(O)cc12` [Factor 2, 6,7,4′-trihydroxyisoflavone], in the assay with MCF-7 cells [1] (setting [10]), the IC50 amounted to 12 µg/mL (≈ 44.4 µM).

In the case of `O=c1c(-c2ccc(O)cc2)coc2cc(O)cc(O)c12` [genistein], the IC50 was 32 µg/mL (≈ 118 µM) with MCF-7 cells [1] (setting [7]); 22 µg/mL (≈ 81.4 µM) in the assay on MCF-7 cells [1] (setting [8]); 15 µg/mL (≈ 55.5 µM) in the assay with MCF-7 cells [1] (setting [9]); 18 µg/mL (≈ 66.6 µM) with MCF-7 cells [1] (MCF7, 144 h, 6 days of incubation, Example 8, read-out: IC50, cell viability of MCF-7 cells); above 40 µg/mL in the assay with MCF-7 cells [1] (setting [11]); 38 µg/mL (≈ 141 µM) in the assay on MCF-7 cells [1] (MCF7, 48 hours incubation, Example 9, read-out: IC50, MCF7 cells). The IC50 in the assay with MCF-7 cells [1] (MCF7, 144 hours incubation, Example 9, read-out: IC50, MCF7 cells) is 15 µg/mL (≈ 55.5 µM); in assay [2], 8.8 µg/mL (≈ 32.6 µM); in the assay with MCF-7 cells [3] (induced by 1-(o-chlorophenyl)-1-(p-chlorophenyl)-2,2,2-trichloroethane, 5-octylphenol, 4-nonylphenol, read-out: IC50, inhibition of proliferation of MCF-7 cells induced by environmental chemicals), 25 to 33 µM. The “effect on growth of MCF-7 cancer cells at low concentration” value with MCF-7 cells [1] (concentrations <10 μM, Example 8) is “enhance rather than inhibit the growth”. Also, the “inhibition of MCF7 cells at low concentration” value with MCF-7 cells [1] (Example 9) is on record as “no significant inhibition”. Besides, the “proliferative activity of cancer cells at low concentration” value in the assay with MCF-7 cells [1] (MCF7, Example 9) is “some proliferative activity”. Moreover, the “effect on growth of MCF-7 cells” value with MCF-7 cells [3] is “can enhance the growth”.

Regarding `COc1ccc(-c2coc3cc(O)cc(O)c3c2=O)cc1` [biochanin A], the IC50 with MCF-7 cells [1] (MCF7, 72 and 144 hours incubation, Example 9, read-out: IC50, inhibitory effect on MCF7 cells) fell in the range of 18 to 23 µg/mL (≈ 63.3 to 80.9 µM). In addition, in the assay with MCF-7 cells [3], the “effect on growth of MCF-7 cells” value was “can enhance the growth”.

Take `COc1ccc(-c2coc3cc(O)ccc3c2=O)cc1` [formononetin]: in the assay on MCF-7 cells [1] (setting [6]), the IC50 is at least 36 µg/mL.

The values above are taken from US7799955B2, “Isoflavone metabolites” (priority 1999, dated 2010).
